According to PMC7466159, “Anti-Metastasis Fascin Inhibitors Decrease the Growth of Specific Subtypes of Cancers” (Cancers, 2020):

Assays:
[1] = system: MDA-MB-468 triple-negative breast cancer cells; assay: Cell growth assay, MDA-MB-468; format: cell-based; conditions: MDA-MB-468 cells in culture, 10% serum
[2] = system: BT-20 triple-negative breast cancer cells; assay: Cell growth assay, BT-20; format: cell-based; conditions: BT-20 cells in culture, 10% serum
[3] = system: HCC38 triple-negative breast cancer cells; assay: Cell growth assay, HCC38; format: cell-based; conditions: HCC38 cells in culture, 10% serum
MDA-MB-468 tumor cells = assay: MDA-MB-468 breast cancer model in NSG mice (tumor growth, overall survival); format: in vivo; conditions: treatment from Day 14, compared with the control group
Procedure: MDA-MB-468 cells and HCC38 cells grew in the presence of EGF with or without NP-G2-044. […] Finally, we used the animal model to investigate whether the primary tumor growth of MDA-MB-468 cells was sensitive to fascin inhibitors. MDA-MB-468 tumor cells were implanted into the mammary gland of NSG mice, and these mice were randomly divided into four groups. One group of mice was used as control (Figure 6I). The second group of mice was treated with the fascin inhibitor NP-G2-044 (Figure 6I). The third group was treated with the EGFR inhibitor gefitnib (Figure 6I), and the fourth group was treated with the combination of NP-G2-044 + gefitinib (Figure 6I). […] We dissected the primary tumor tissues 55 days after the tumor implantation from some mice. […] Furthermore, the overall survival of the mice was analyzed (Figure 6K).
For the breast cancer model, MDA-MB-468 cells (5 × 10^6) suspended in PBS-matrigel (v/v, 1:1) were injected subcutaneously into the abdominal mammary gland area of female NSG mice on Day 0 as previously described. Starting on Day 14, NP-G2-044 was given once a day for 5 days every week by gavage at 300 mg kg^−1 per mouse until their death. Starting on Day 14, gefitinib was given twice weekly by gavage at 150 mg kg^−1 per mouse until their death. The control solvent was given once a day for 5 days every week by gavage according to their body weight until their death. […] The primary tumor volume was calculated as length × width^2 ×π/6.

Structure (SMILES): COc1cc2ncnc(Nc3ccc(F)c(Cl)c3)c2cc1OCCCN1CCOCC1 [gefitinib, reference compound]
- growth sensitivity [1]: sensitive
- growth sensitivity [2]: sensitive
- growth sensitivity [3]: sensitive
- growth of primary tumors (MDA-MB-468 tumor cells): reduced the growth of primary tumors to the same degree
- increase of median overall survival (MDA-MB-468 tumor cells): ~ 50%
